Measured values taken from ChEMBL document CHEMBL5154640, “Novel naphthyl based 1,2,4-trioxanes: Synthesis and in vivo efficacy in the Plasmodium yoelii nigeriensis in Swiss mice” (2021).
Active and inactive are the calls of the source. No cut-off for these calls is given here.

Legend:
[1] = system: Plasmodium yoelii nigeriensis; experiment: Antimalarial activity against Plasmodium yoelii nigeriensis infected in Swiss mouse assessed as survival at 48 mg/kg, po measured after 4 days relative to control; type: functional, organism-based; details: time 4.0 day
[2] = system: Plasmodium yoelii nigeriensis; experiment: Antimalarial activity against Plasmodium yoelii nigeriensis infected in Swiss mouse assessed as suppression of parasitemia at 96 mg/kg, im measured after 4 days relative to control; type: functional; details: time 4 day
[3] = system: Plasmodium yoelii nigeriensis; experiment: Antimalarial activity against Plasmodium yoelii nigeriensis infected in Swiss mouse assessed as suppression of parasitemia at 24 mg/kg, im measured after 4 days relative to control; type: functional; details: time 4 day
[4] = system: Plasmodium yoelii nigeriensis; experiment: Antimalarial activity against Plasmodium yoelii nigeriensis infected in Swiss mouse assessed as suppression of parasitemia at 48 mg/kg, po measured after 4 days relative to control; type: functional; details: time 4 day
[5] = system: Plasmodium yoelii nigeriensis; experiment: Antimalarial activity against Plasmodium yoelii nigeriensis infected in Swiss mouse assessed as survival at 96 mg/kg, po measured after 4 days relative to control; type: functional, organism-based; details: time 4.0 day
[6] = system: Plasmodium yoelii nigeriensis; experiment: Antimalarial activity against Plasmodium yoelii nigeriensis infected in Swiss mouse assessed as suppression of parasitemia at 24 mg/kg, po measured after 4 days relative to control; type: functional; details: time 4 day
[7] = system: Plasmodium yoelii nigeriensis; experiment: Antimalarial activity against Plasmodium yoelii nigeriensis infected in Swiss mouse assessed as suppression of parasitemia at 96 mg/kg, po measured after 4 days relative to control; type: functional; details: time 4 day
[8] = system: Plasmodium yoelii nigeriensis; experiment: Antimalarial activity against Plasmodium yoelii nigeriensis infected in Swiss mouse assessed as suppression of parasitemia at 48 mg/kg, im measured after 4 days relative to control; type: functional; details: time 4 day
[9] = system: Plasmodium yoelii nigeriensis; experiment: Antimalarial activity against Plasmodium yoelii nigeriensis infected in Swiss mouse assessed as survival at 48 mg/kg, im measured after 4 days relative to control; type: functional, organism-based; details: time 4.0 day

C=C(c1ccc(OC(C)(C)CO)c2ccccc12)C1COC2(OO1)C1CC3CC(C1)CC2C3 (stereo not given)
Activity [1]: Active
Activity [2]: 100%
Activity [3]: 27.68%
Activity [4]: 100%
Activity [5]: Active
Activity [6]: 100%
Activity [7]: 100%
Activity [8]: 70.24%

C/C(=C/CO)C12OOC(C)(C)OC1CC(=O)c1ccccc12 (stereo not given)
Activity [2]: 37.81%
Activity [7]: 53.17%

C=C(c1ccc(OCCO)c2ccccc12)C1COC2(OO1)C1CC3CC(C1)CC2C3 (stereo not given)
Activity [2]: 20.54%
Activity [7]: 24.1%

C=C(c1ccc(O[Si](C)(C)C(C)(C)C)c2ccccc12)C1COC2(OO1)C1CC3CC(C1)CC2C3 (stereo not given)
Activity [7]: 27.71%

C=C(c1ccc(OC(C)(C)CO)c2ccccc12)C1COC2(CCCC2)OO1 (stereo not given)
Activity [2]: 100%
Activity [5]: Active
Activity [7]: 100%

C/C(=C/CO)C12OOC3(OC1CC(=O)c1ccccc12)C1CC2CC(C1)CC3C2 (stereo not given)
Activity [2]: 35.89%
Activity [7]: 45.68%

C/C(=C/CO)C12OOC3(CCCCC3)OC1CC(=O)c1ccccc12 (stereo not given)
Activity [2]: 51.63%
Activity [7]: 52.78%

C=C(c1ccc(OC(C)(C)CO)c2ccccc12)C1COC2(CCCCC2)OO1 (stereo not given)
Activity [2]: 100%
Activity [5]: Active
Activity [7]: 100%

C/C(=C/CO)C12OOC3(CCCC3)OC1CC(=O)c1ccccc12 (stereo not given)
Activity [2]: 37.43%
Activity [7]: 39.17%

C=C(c1ccc(O[Si](C)(C)C(C)(C)C)c2ccccc12)C1COC(C)(C)OO1 (stereo not given)
Activity [7]: 14.7%

C=C(c1ccc(OC(C)(C)CO)c2ccccc12)C1COC(C)(C)OO1 (stereo not given)
Activity [2]: 48.27%
Activity [7]: 24.76%

C=C(c1ccc(OCCO)c2ccccc12)C1COC2(CCCCC2)OO1 (stereo not given)
Activity [2]: 100%
Activity [7]: 75.34%

C=C(c1ccc(O[Si](C)(C)C(C)(C)C)c2ccccc12)C1COC2(CCCC2)OO1 (stereo not given)
Activity [7]: 27.71%

C=C(c1ccc(OCCO)c2ccccc12)C1COC(C)(C)OO1 (stereo not given)
Activity [2]: 40%
Activity [7]: 22.89%

C[C@@H]1CC[C@H]2[C@@H](C)C(=O)O[C@@H]3O[C@@]4(C)CC[C@@H]1[C@]32OO4 [ARTEMISININ]
Activity [9]: Active
Activity [3]: 100%
Activity [4]: 100%
Activity [8]: 100%

C=C(c1ccc(OCCO)c2ccccc12)C1COC2(CCCC2)OO1 (stereo not given)
Activity [2]: 100%
Activity [7]: 57.23%

C=C(c1ccc(O[Si](C)(C)C(C)(C)C)c2ccccc12)C1COC2(CCCCC2)OO1 (stereo not given)
Activity [7]: 45.56%
